# Data as given in patent US20170065564A1, “BIS-CYCLIC GUANIDINE COMPOUND COMPOSITIONS, METHODS OF USE AND TREATMENT THEREOF” (University of South Florida, priority 2014, published 2017).
# Assays:
# [1] = tested on: Enterobacter cloacae biofilm; assay: Minimum biofilm eradication concentration (MBEC) assay; assay type: cell-based; conditions: 24 h biofilm, purified compound
# Description: (§1) The minimum biofilm eradication concentration (MBEC) was determined in 96-well microtiter plates as follows. Broth cultures of ESKAPE strains were grown using the conditions described above. Biofilms for each of the ESKAPE pathogens were generated from these as we have previously described for S. aureus, however human serum was not used for non-staphylococcal organisms.^44 46 For all organisms, biofilms were developed by standardizing an overnight culture into fresh media to an OD600 of 0.5 and adding 150 μl into each well of a 96-well microtiter plate. […] These cultures were incubated at 37° C. overnight alongside no drug controls. After 24 hours, the media was removed from wells and the biofilm resuspended in phosphate buffered saline (PBS). Cultures were mixed by vigorous pipetting, before being serially diluted in PBS, and plated in duplicate on relevant agar. Plates were incubated at 37° C. for 24 hours, and CFUs determined by enumeration. Each analysis was performed using three technical replicates, and antibiofilm activity was determined by comparing treated to untreated samples.
# [2] = tested on: Enterococcus faecium biofilm; assay: as above; assay type: cell-based; conditions: 24 h biofilm, purified compound
# Description: as §1
# Enterococcus faecium [3] = assay: MIC micro broth dilution assay; assay type: cell-based; design: key to stacked score activity, 100/MIC, E: stacked score = 100/MIC
# Procedure, shortened: (§2)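 Multidrug-resistant clinical ESKAPE isolates were grown overnight (Gram-positives in TSB, Gram-negatives in LB), diluted 1:1,000 and exposed to decreasing compound concentrations in DMF (≤2.0% DMF).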
# Enterobacter cloacae [4] = assay: MIC micro broth dilution assay; assay type: cell-based; design: key to stacked score activity, 100/MIC, E: stacked score = 100/MIC
# Procedure, shortened: as §2
# A. baumannii = assay: Resistance serial passage assay; assay type: cell-based, Acinetobacter baumannii; conditions: 8 passages, concentration doubled each day
# Description: ESKAPE pathogens were grown overnight in liquid media at 37° C. These cultures were then diluted 1:100 in fresh media, and seeded into a 96-well plate. Lead bis-cyclic guanidines or control agents were added to respective wells at half MIC concentrations. Plates were then incubated for 24 hours at 37° C., with bacteria removed from these cultures on the following day, to inoculate fresh media (1:100 dilution) containing compounds at a 2-fold higher concentrations. These were then grown overnight, and the procedure repeated for a total of eight days. […] Each experiment was performed in triplicate, yielding identical results.
# Enterococcus faecium [5] = assay: Minimal bactericidal concentration (MBC) assay; assay type: cell-based; conditions: purified compound; read-out: MBC90
# Description: (§3) Briefly, compound was washed by centrifugation and serial dilution, before plating on Tryptic Soy Agar (TSA). Plates were incubated for 24 hours at 37° C. and cell viability assessed by determining CFU/ml at each concentration, for every compound. Percent recovery was then determined compared to CFU/ml from no drug controls. All concentrations and controls were tested using three biological replicates, alongside two technical replicates for each data point.
# Enterobacter cloacae [6] = assay: Minimal bactericidal concentration (MBC) assay; assay type: cell-based; conditions: purified compound; read-out: MBC90
# Description: as §3
# Klebsiella pneumoniae [7] = assay: Minimal bactericidal concentration (MBC) assay; assay type: cell-based; conditions: purified compound; read-out: MBC90
# Description: as §3
# Staphylococcus aureus [8] = assay: Minimal bactericidal concentration (MBC) assay; assay type: cell-based; conditions: purified compound; read-out: MBC90
# Description: as §3
# Pseudomonas aeruginosa = assay: Minimal bactericidal concentration (MBC) assay; assay type: cell-based; conditions: purified compound; read-out: MBC90
# Description: as §3
# Acinetobacter baumannii = assay: Minimal bactericidal concentration (MBC) assay; assay type: cell-based; conditions: purified compound; read-out: MBC90
# Description: as §3
# Klebsiella pneumoniae [9] = assay: MIC micro broth dilution assay; assay type: cell-based; design: key to stacked score activity, 100/MIC, K: stacked score = 100/MIC
# Procedure, shortened: as §2
# Staphylococcus aureus [10] = assay: MIC micro broth dilution assay; assay type: cell-based; design: key to stacked score activity, 100/MIC, S: stacked score = 100/MIC
# Procedure, shortened: as §2
# [11] = panel of E. cloacae clinical isolates
# [12] = panel of K. pneumoniae clinical isolates
smiles,measurement,setting,value
CCCCCCCN1C(=N)N(CCCC[C@H]2CNC(=N)N2CCC23CC4CC(CC(C4)C2)C3)C[C@@H]1CCCC [Compound 19],MBEC50,[1],15.14 µM
same,MBEC50,[2],13.27 µM
same,"stacked score activity, 100/MIC, E",Enterococcus faecium [3]; E. faecium,33
same,MIC,Enterococcus faecium [3]; E. faecium isolate 1406,2.0 µM
same,MIC,Enterococcus faecium [3]; E. faecium isolate 1407,2.0 µM
same,MIC,Enterococcus faecium [3]; E. faecium isolate 1432,2.0 µM
same,MIC,Enterococcus faecium [3]; E. faecium isolate 1438,2.0 µM
same,MIC,Enterococcus faecium [3]; E. faecium isolate 1439,2.0 µM
same,MIC,Enterococcus faecium [3]; E. faecium isolate 1443,2.0 µM
same,MIC,Enterococcus faecium [3]; E. faecium isolate 1444,2.0 µM
same,MIC,Enterococcus faecium [3]; E. faecium isolate 1449,2.0 µM
same,MIC,Enterococcus faecium [3]; E. faecium isolate 1450,2.0 µM
same,MIC,Enterococcus faecium [3]; E. faecium isolate 1451,2.0 µM
same,MIC,"Enterococcus faecium [3]; purified compound, Table 1",1.66 µM
same,"stacked score activity, 100/MIC, E",Enterobacter cloacae [4]; E. cloacae,20
same,MIC,Enterobacter cloacae [4]; E. cloacae isolate 1404,2.0 µM
same,MIC,Enterobacter cloacae [4]; E. cloacae isolate 1405,2.0 µM
same,MIC,Enterobacter cloacae [4]; E. cloacae isolate 1430,3.0 µM
same,MIC,Enterobacter cloacae [4]; E. cloacae isolate 1431,2.0 µM
same,MIC,Enterobacter cloacae [4]; E. cloacae isolate 1445,3.0 µM
same,MIC,Enterobacter cloacae [4]; E. cloacae isolate 1446,5.0 µM
same,MIC,Enterobacter cloacae [4]; E. cloacae isolate 1447,2.0 µM
same,MIC,Enterobacter cloacae [4]; E. cloacae isolate 1448,2.0 µM
same,MIC,Enterobacter cloacae [4]; E. cloacae isolate 1454,2.0 µM
same,MIC,Enterobacter cloacae [4]; E. cloacae isolate 1455,2.0 µM
same,concentration inhibiting 70% of strains,Enterobacter cloacae [4]; [11],2 µM
same,concentration inhibiting 90% of isolates,Enterobacter cloacae [4]; [11],5 µM
same,MIC,"Enterobacter cloacae [4]; purified compound, Table 1",1.66 µM
same,increase in MIC after serial passage,A. baumannii,8 fold
same,MBC,Enterococcus faecium [5],3.59 µM
same,MBC,Enterobacter cloacae [6],2.70 µM
same,MBC,Klebsiella pneumoniae [7],2.61 µM
same,MBC,Staphylococcus aureus [8],2.88 µM
same,MBC,Pseudomonas aeruginosa,2.77 µM
same,MBC,Acinetobacter baumannii,4.66 µM
same,"stacked score activity, 100/MIC, K",Klebsiella pneumoniae [9]; K. pneumoniae,20
same,MIC,Klebsiella pneumoniae [9]; K. pneumoniae isolate 1408,2.0 µM
same,MIC,Klebsiella pneumoniae [9]; K. pneumoniae isolate 1409,3.0 µM
same,MIC,Klebsiella pneumoniae [9]; K. pneumoniae isolate 1410,3.0 µM
same,MIC,Klebsiella pneumoniae [9]; K. pneumoniae isolate 1411,2.0 µM
same,MIC,Klebsiella pneumoniae [9]; K. pneumoniae isolate 1412,3.0 µM
same,MIC,Klebsiella pneumoniae [9]; K. pneumoniae isolate 1413,3.0 µM
same,MIC,Klebsiella pneumoniae [9]; K. pneumoniae isolate 1433,2.0 µM
same,MIC,Klebsiella pneumoniae [9]; K. pneumoniae isolate 1434,5.0 µM
same,MIC,Klebsiella pneumoniae [9]; K. pneumoniae isolate 1440,3.0 µM
same,MIC,Klebsiella pneumoniae [9]; K. pneumoniae isolate 1441,2.0 µM
same,concentration inhibiting 70% of strains,Klebsiella pneumoniae [9]; [12],2 µM
same,concentration inhibiting 90% of isolates,Klebsiella pneumoniae [9]; [12],5 µM
same,MIC,"Klebsiella pneumoniae [9]; purified compound, Table 1",1.66 µM
same,"stacked score activity, 100/MIC, S",Staphylococcus aureus [10]; S. aureus,33
same,MIC,Staphylococcus aureus [10]; S. aureus isolate 542,2.0 µM
same,MIC,Staphylococcus aureus [10]; S. aureus isolate 626,2.0 µM
same,MIC,Staphylococcus aureus [10]; S. aureus isolate 635,2.0 µM
same,MIC,Staphylococcus aureus [10]; S. aureus isolate 648,2.0 µM
same,MIC,Staphylococcus aureus [10]; S. aureus isolate 690,2.0 µM
same,MIC,Staphylococcus aureus [10]; S. aureus isolate 693,2.0 µM
same,MIC,Staphylococcus aureus [10]; S. aureus isolate 715,2.0 µM
same,MIC,Staphylococcus aureus [10]; S. aureus isolate 728,2.0 µM
same,MIC,Staphylococcus aureus [10]; S. aureus isolate 834,2.0 µM
same,MIC,Staphylococcus aureus [10]; S. aureus isolate 1043,2.0 µM
same,MIC,Staphylococcus aureus [10]; S. aureus isolate 1049,2.0 µM
same,MIC,"Staphylococcus aureus [10]; purified compound, Table 1",1.66 µM
